Consider 7 molecules from patent US20180230399A1, “ORGANIC COMPOUNDS” (GIVAUDAN SA, priority 2014, published 2018).

Where two headings read alike, the source gives them in different places.

Data set [1] deals with hepatocytes from male rats (Sprague Dawley). The data set is described as follows: In vitro metabolism study in rat hepatocytes in suspension, GC-MS. To be noted: for Benzoic acid derivative concentration / Residual conc.: male, Sprague-Dawley, rat, 4 h, 100 μM. As for the experimental part: In order to study in vitro metabolism in rat hepatocytes, Lilial™ and compounds of the present invention may be incubated in the presence of rat hepatocytes in suspension. Reduction in the concentration of Lilial™ and the compounds of the present invention and formation of any of the corresponding benzoic acid derivatives may be analysed by GC-MS.
Cryopreserved hepatocytes from male rats (Sprague Dawley; Lifetechnologies) were defrozen, washed in Cyropreserved Hepatocytes Recovery Medium (CHRM; Lifetechnologies) and suspended in Williams E Medium (WEM; Lifetechnologies). Lilial™, or the compounds of the present invention (final concentration: 100 μM) were added to the cells (1×10^6 viable cells/ml) and suspensions were incubated up to 4 hours at 37° C. on a shaker in duplicate. Metabolism of testosterone was monitored as positive control. Decrease of the test compounds and formation of the corresponding benzoic acid derivative was determined by GC-MS analysis of methyl esters formed after derivatisation with trimethylsilyl diazomethane (Sigma-Aldrich) in methanol. The test compounds react with diazomethane yielding a methyl ketone which was used for the quantification of Lilial™ and the compound of formula (I). Metabolism was stopped with ice cold 1 M HCl, samples were extracted with tert-butyl methyl ether (MTBE) and analysed by GC-MS. Incubations containing testosterone as control were also stopped with ice cold 1 M HCl, centrifuged to separate the cells, filtrated and the decrease of testosterone analysed by LC-MS. To quantify decrease of the test substances and formation of benzoic acid metabolites, calibration curves of reference materials Lilial™ and the compounds of the present invention, tert-butyl benzoic acid (Fluka) was prepared in hepatocyte incubation medium and analysed like the hepatocyte samples.

Data set [2] can be described thus: Formation of the corresponding esters with Coenzym A. To be noted: further experiment. The class given is in vitro ADME.
The test system of a further data set is mice. To be noted: cited from earlier work.
A further data set deals with guinea-pigs. The following applies: cited from earlier work.
The test system of a further data set is primates. The following applies: cited from earlier work.
The test system of a further data set is male rats. To be noted: Hunter et al. 1965, Cagen et al. 1989; cited from earlier work.
In a further data set the test system is glucose synthesis. To be noted: in vitro; McCune et al 1982; cited from earlier work.
The subject of the next data set is fatty acid synthesis. The following applies: in vitro; McCune et al 1982; cited from earlier work.

For `CC(C)c1ccc(CCCC=O)cc1`, in data set [1], the “Benzoic acid derivative concentration” value was found to be 1.4 µM and the Residual conc. was 0 µM.
The matching figures for `CC(C)(C)c1ccc(CCCC=O)cc1`: 1.3 µM and 0.7 µM.
Consider `CC(C)Cc1ccc(CCCC=O)cc1`, for which, in data set [1], the “Benzoic acid derivative concentration” value was 0.5 µM and the Residual conc. amounted to 0.2 µM.
With `Cc1cc(CC(C)C)ccc1CCCC=O` [Example 3, 4-(4-Isobutyl-2-methylphenyl)butanal], the “Formation of the corresponding esters with Coenzym A” value in data set [2] is “does not provide the formation of the corresponding esters with Coenzym A”.
Regarding `CC(C=O)Cc1ccc(C(C)(C)C)cc1` (stereo not shown) [Lilial™, 3-(4-tert-butylphenyl)-2-methylpropanal], the “Decrease of the test compound (in words)” value in data set [1] is “metabolised rapidly”. Moreover, in data set [1], the Residual conc. turned out to be 0 µM. For the same molecule, the Effects in studies entry with mice, in the data set on guinea-pigs and in the data set with primates was “No effects” in each case.
Take `CC(C)(C)c1ccc(C(=O)O)cc1` [tert-Butyl benzoic acid, tert-butyl benzoic acid]: in the data set on male rats, the Testicular effects entry was “testicular effects”. Further, in the data set with glucose synthesis, the “Inhibition of glucose synthesis” value is “inhibit”. For the same molecule, the “Inhibition of fatty acid synthesis” value in the data set with fatty acid synthesis is on record as “inhibit”.
With `C[C@]12CC[C@H]3[C@@H](CCC4=CC(=O)CC[C@@]43C)[C@@H]1CC[C@@H]2O` [testosterone], in data set [1] (rat hepatocytes, up to 4 hours at 37° C.), the “Decrease of the test compound (in words)” value was “rapid decrease”.
